In ChEMBL document CHEMBL6134862, “Discovery of WEE1 Kinase Inhibitors with Potent Activity against Patient-Derived, Metastatic Colorectal Cancer Organoids” (J Med Chem, 2025):

Legend:
[1] = mouse, in vivo, po, 10 mg/kg, 24 h
in vivo [2] = details: Swiss outbred, mouse, iv, 3 mg/kg
in vivo [3] = details: Swiss outbred, mouse, iv, 3 mg/kg; remark: listed apart in the source
in vivo [4] = details: Swiss outbred, mouse, iv, 3 mg/kg; remark: listed apart in the source
in vivo [5] = details: Swiss outbred, mouse, po, 10 mg/kg
physchem = details: buffer, pH 7.4

C=CCn1c(=O)c2cnc(Nc3ccc(N4CCN(C)CC4)cc3)nc2n1-c1cccc(C(C)(C)O)n1 [ADAVOSERTIB]
AUC [1]: 67 nM·h
AUC(0-t) at 24 h (in vivo [2]): 210 nM·h
clearance at 24 h (in vivo [3]): 4.5 L/h/kg
Vd at 24 h (in vivo [4]): 1.27 L/kg
Cmax at 24 h (in vivo [5]): 0.026 µM
chromatographic logD (physchem): 3.4
